Legend:
[1] = molecular target: HIV-1 92UG037.8 Env (Human immunodeficiency virus type 1, UniProt Q70200); assay type: cell-based
[2] = tested on: 293T cells
[3] = tested on: Envs from HIV-1 primary isolates of clade A, B, C and AG; assay type: cell-based
[4] = tested on: HIV-1 Env pseudoviruses; assay type: cell-based
[5] = tested on: SIVmac251.30 Env; assay type: cell-based, SIV
[6] = tested on: 2F5 Fab; assay type: binding
[7] = tested on: TZM.bl cells

SMILES	inhibition activity/potency in the HIV-1 Env cell-cell fusion assay (in words) [1]	cytotoxicity by an assay measuring ATP concentration [2]	inhibition of cell-cell fusion mediated by Envs of multiple primary HIV-1 isolates [3]	inhibition of HIV-1 infectivity versus MuLV negative control [4]	inhibition of cell-cell fusion mediated by SIV Env, high expression level [5]	inhibition of cell-cell fusion mediated by SIV Env, low expression level [5]	binding to 2F5 Fab by SPR (in words) [6]	cytotoxicity in TZM.bl cells [7]
Cc1cc(N)c2ccccc2n1 [4-aminoquinaldine]	no activity	–	–	–	–	–	–	–
Cc1cc(N)c2ccccc2[n+]1CCCCCCCCCC[n+]1c(C)cc(N)c2ccccc21 [dequalinium, quinolinium,1,1’-(1,10-decanediyl)-bis(4-amino-2-methyldiiodide)]	–	minimal level of cytotoxicity	specifically inhibited	much greater inhibition	resistant	inhibited	no binding	more cytotoxicity than in the cell-cell fusion assay

Source: paper PMC7723321 (Nature chemical biology, 2020)
